Entries after “also recorded” stand apart in the source; their conditions may differ.
Legend:
[1] = test system: Hippocampal Slices; assay: Recovery of synaptic activity (EPSP) in hippocampal slices after hypoxia-hypoglycemia (Example 4); type: cell-based, rat (male Wistar); settings: for recovery of EPSPs, overall effect: concentrations tested in Table 2
Protocol: Young male Wistar rats (150 to 250 g) were anesthetized with ketamine (200 mg/kg IP) and ether and were perfused transcardially with cold, oxygenated, low sodium-containing physiological buffer solution (252 mM sucrose, 3.5 mM KCl, 1.0 mM MgSO4, 20 mM CaC1, 26 mM NaHCO3, 1.25 mM NaH2 PO4, and 10 mM glucose) with 50 μM ketamine added. Brains were removed and hippocampi carefully excised. Hippocampi were sliced transversely at 450 μm and transferred into cold (4° C.) low-sodium buffer solution gassed with 95% O2, 5% CO2 at 31° C. After 45 minutes slices were transferred to oxygenated normal physiological solution (126 mM NaCl, 3.5 mM KCl, 1.0 mM MgSO4, 2.0 mM CaCl2, 20 mM NaHCO3, 1.25 mM NaH2 PO4, and 10 mM glucose) at 31° C. for at least 1 hour before experiments began. After preincubation, slices were transferred to a heated (36° C.), gassed incubation chamber where they were continuously superfused with gassed normal physiological solution. Evoked extracellular synaptic potentials (EPSPs) were obtained using glass micropipettes placed approximately 100 μm into the slice. Electrical stimulation was applied once per minute to the stratum radiatum by insulated paired nichrome wires (60 μm diameter). Stimuli consisted of 150 μA pulses lasting 0.4 msec. […] Data from a slice were used only if EPSP amplitude was greater than 2.0 mV before hypoxia-hypoglycemia.
(§1) Evoked potentials were recorded and analyzed with a digital computer interface. Experiments were started by recording for several minutes under normal conditions (95% O2, 5% CO2, 10 mM glucose). Then drug was added to the superfusion solution (or normal solution was continued in control experiments). After 10 minutes of drug superfusion, hypoxia-hypoglycemia was induced by switching to superfusion solution containing added drug with low glucose (2 mM) that was equilibrated with 95% N2 and 5% CO2. At the same time the slice chamber gas was switched to 95% N2 and 5% CO2. Hypoxia-hypoglycemia was continued for 12 minutes. After 12 minutes, 95% O2 and 10 mM glucose were returned to the slices and the superfusing solution. Following 15 minutes of reoxygenation, the experiment was ended. EPSPs were considered recovered if they returned to at least half of their original amplitude. The percentage of slices with recovered EPSPs were calculated for each condition.
This study was identical in design to Example 3 except that during the hypoxic period of 12 minutes, glucose was reduced from 10 mM to 2 mM rather than from 10 mM to zero as in Example 3.

[2] = test system: neuroprotective capabilities; assay: Neuroprotective capabilities in vitro (general statement); type: cell-based
[3] = test system: voltage-dependent sodium channels; settings: cited from earlier work
[4] = test system: Neuronal/Glial Cortical Cultures; assay: Hypoxia-induced lactate dehydrogenase release (cell injury) in neuronal/glial cortical cultures; type: cell-based, rat (Sprague Dawley); settings: Rattus norvegicus, read-out: % Inh (percent inhibition of the release of lactate dehydrogenase in comparison to hypoxic control cultures)
Protocol: An assay was conducted to compare the inhibitory action of various compounds which are the subject of the present invention. The assay measured the oxygen deprivation-induced neuronal cell death from various cortical cultures. Lactate dehydrogenase (LDH) is a cytosolic enzyme that is only present in the extracellular medium if cell membranes rupture, indicating cell death. Therefore, LDH release into the culture medium is a convenient assay of cell death. The results of Table 3 indicate that each of the compounds tested decreased neuronal cell death from hypoxia in vitro.
The uteri of Sprague Dawley rats in their 18th day of fetal gestation were removed under halothane anesthesia and placed in a chilled bath of magnesium and calcium-free Hank's balanced salt solution (HBSS). Cortical brain hemispheres were removed from individual fetuses and digested in 0.1% trypsin in HBSS for 15 minutes at room temperature. Digested tissue was washed three times with HBSS then dissociated into a single cell suspension by trituration with a glass pipette. […] One hundred microliters of this cell suspension was pipetted into individual wells of 96-well tissue culture plates previously coated with poly-L-lysine, then stored in a humidified incubator (37° C., 3% CO2). Glial cell growth was stopped by the addition of 100 μL of 45% DME, 45% HAM F12, and 10% Horse serum (10/0 DME/F12) containing 15 μg/mL of 5-fluoro-2-deoxyuridine and 35 μg/mL of uridine, 3 days after the initial plating. Cultures were fed at 2- or 3-day intervals thereafter by replacing 100 μL of spent medium with an identical volume of fresh 10/0 DME/F12.
Sixteen-day-old cultures were prepared for experiments by removing growth medium from each culture well and rinsing once with 250 μL of Mg^++ -free HBSS containing 1.8 mM Ca^++ and 1 g/L D-glucose (0 Mg-HBSS) Control and test agent solutions, prepared using 0 Mg-HBSS medium, were dispensed in 50 μL aliquots into individual test wells (Total volume/well=50 μL). All liquid medium preparations to this point were equilibrated with […], 5% CO2. Plates were placed into a 37° C., humidified, triple-gas incubator with O2 and CO2 levels maintained at 1% and 10%, respectively. Plates were removed after 7.5 hours of oxygen deprivation and restored to normoxic conditions (20% O2 /10% CO2, 37° C.) following a 50 μL addition to each well of appropriate control or test agent solutions containing 1.8 mM Ca^++, 1.6 mM Mg^++, and 7.0 g/L D-glucose. Final medium concentrations of 1.8 mM Ca^++, 0.8 mM Mg^++, and 4 g/L D-glucose were present during the reoxygenation period.
Medium concentrations of lactate dehydrogenase (LDH), a cytosolic enzyme normally retained by cells but released upon cell death, were determined for each well following an additional 16.5-hour normoxic exposure period. Individual 25 μL medium specimens were collected from each well and placed into wells of a clean 96-well microtiter plate containing 225 μL of 0.1 M KPO4 buffer (pH=7.5 at 25° C.) and 30 μg NADH (reduced […] adenine dinucleotide). After 10-minute incubation at 37° C., 30 μL of 2.4 mM sodium pyruvate was added to each well and plates were gently shaken to mix solution. Plates were immediately placed into a Multiscan MCC/340 plate reader and scanned for […] (excitation at 340 nm) for 1 minute at 5-second intervals. A kinetic analysis of the change in medium absorbance resulting from shifts in NADH concentrations was used, in combination with factors to correct for temperature, light path, and volume adjustments to determine medium LDH concentrations (IU/mL). Normoxic control baseline LDH levels were subtracted from both hypoxic control and test agent values prior to determining test agent effectiveness in preventing oxygen deprivation-induced injury.

[5] = in vivo; cited from earlier work
[6] = test system: Hippocampal Slices; assay: Effect on synaptic potentials / presynaptic action potential in slices before hypoxia; type: cell-based, rat (male Wistar)
Protocol: Young male Wistar rats (150 to 250 g) were anesthetized with ketamine (200 mg/kg IP) and ether and were perfused transcardially with cold, oxygenated, low sodium-containing physiological buffer solution (252 mM sucrose, 3.5 mM KCl, 1.0 mM MgSO4, 20 mM CaC1, 26 mM NaHCO3, 1.25 mM NaH2 PO4, and 10 mM glucose) with 50 μM ketamine added. Brains were removed and hippocampi carefully excised. Hippocampi were sliced transversely at 450 μm and transferred into cold (4° C.) low-sodium buffer solution gassed with 95% O2, 5% CO2 at 31° C. After 45 minutes slices were transferred to oxygenated normal physiological solution (126 mM NaCl, 3.5 mM KCl, 1.0 mM MgSO4, 2.0 mM CaCl2, 20 mM NaHCO3, 1.25 mM NaH2 PO4, and 10 mM glucose) at 31° C. for at least 1 hour before experiments began. After preincubation, slices were transferred to a heated (36° C.), gassed incubation chamber where they were continuously superfused with gassed normal physiological solution. Evoked extracellular synaptic potentials (EPSPs) were obtained using glass micropipettes placed approximately 100 μm into the slice. […]
Evoked potentials were recorded and analyzed with a digital computer interface. […] The percentage of slices with recovered EPSPs were calculated for each condition.
Excitatory synaptic potential (EPSP) amplitude was measured before and during drug treatment in the 10-minute period preceding reduced oxygen and glucose. […]

[7] = test system: Hippocampal Slices; assay: Recovery of synaptic activity (EPSP) in hippocampal slices after hypoxia-hypoglycemia (Example 3); type: cell-based, rat (male Wistar); settings: for percentage of slices that recovered EPSPs: control approximately 5%
Protocol: An in vitro model with rat hippocampal brain slices exposed to hypoxia-hypoglycemia was used to simulate ischemia. Neuroprotection was measured by the recovery of excitatory postsynaptic potentials after reoxygenation.
Young male Wistar rats (150 to 250 g) were anesthetized with ketamine (200 mg/kg IP) and ether and were perfused transcardially with cold, oxygenated, low sodium-containing physiological buffer solution (252 mM sucrose, 3.5 mM KCl, 1.0 mM MgSO4, 20 mM CaC1, 26 mM NaHCO3, 1.25 mM NaH2 PO4, and 10 mM glucose) with 50 μM ketamine added. Brains were removed and hippocampi carefully excised. Hippocampi were sliced transversely at 450 μm and transferred into cold (4° C.) low-sodium buffer solution gassed with 95% O2, 5% CO2 at 31° C. After 45 minutes slices were transferred to oxygenated normal physiological solution (126 mM NaCl, 3.5 mM KCl, 1.0 mM MgSO4, 2.0 mM CaCl2, 20 mM NaHCO3, 1.25 mM NaH2 PO4, and 10 mM glucose) at 31° C. for at least 1 hour before experiments began. After preincubation, slices were transferred to a heated (36° C.), gassed incubation chamber where they were continuously superfused with gassed normal physiological solution. Evoked extracellular synaptic potentials (EPSPs) were obtained using glass micropipettes placed approximately 100 μm into the slice. Electrical stimulation was applied once per minute to the stratum radiatum by insulated paired nichrome wires (60 μm diameter). Stimuli consisted of 150 μA pulses lasting 0.4 msec. The 150 μA stimulus usually gave nearly a maximal EPSP (excitatory postsynaptic potential) amplitude. Data from a slice were used only if EPSP amplitude was greater than 2.0 mV before hypoxia-hypoglycemia.
as §1

[8] = test system: cytokinin activity; settings: cited from earlier work

## NC(=O)N1c2ccccc2C=Cc2ccccc21 [Carbamazepine, carbamazepine]
[1]; 20 μM
  Number Slices Recovered / Number Slices Tested (≥50% EPSP amplitude recovery after reoxygenation): 2/9
[1]; 50 μM
  Number Slices Recovered / Number Slices Tested (≥50% EPSP amplitude recovery after reoxygenation): 4/10
[2]
  neuroprotective capabilities: shown in vitro to have neuroprotective capabilities
[3]
  action on voltage-dependent sodium channels: more selective for sodium channels
[4]
  inhibition at 30 µM: 53%
  inhibition at 100 µM: 95%

## Nc1nnc(-c2cccc(Cl)c2Cl)c(N)n1 [Lamotrigine, lamotrigine]
[2]
  neuroprotective capabilities: shown in vitro to have neuroprotective capabilities
[4]
  inhibition at 30 µM: 68%
  inhibition at 100 µM: 83%

## CCN(CC)CC(=O)Nc1c(C)cccc1C [Lidocaine, lidocaine]
[1]; 50 μM
  Number Slices Recovered / Number Slices Tested (≥50% EPSP amplitude recovery after reoxygenation): 5/9
[1]; 200 μM
  Number Slices Recovered / Number Slices Tested (≥50% EPSP amplitude recovery after reoxygenation): 9/10
  protection from loss of EPSPs: almost complete protection
[1]
  recovery of EPSPs, overall effect: improves recovery of EPSPs at both concentrations tested
[1]; listed as lidocaine
  recovery of EPSPs, overall effect: enhanced recovery of EPSPs
[2]
  neuroprotective capabilities: shown in vitro to have neuroprotective capabilities
[5]
  peripheral hypotensive effects: peripheral hypotensive effects
[3]
  action on voltage-dependent sodium channels: more selective for sodium channels
[6]; 500 μM
  effect on presynaptic action potential and EPSPs: reversibly reduced both presynaptic action potential and EPSPs

## O=C(Nc1ccncc1)Nc1c(Cl)cccc1Cl [N-(2,6-Dichlorophenyl)-N'-4-pyridinyl urea]
[4]
  inhibition at 30 µM: 62%
  inhibition at 100 µM: 88%

## Cc1cccc(C)c1NC(=O)Nc1ccncc1 [N-(2,6-dimethylphenyl)-N'-4-pyridinyl urea]
[4]
  inhibition at 30 µM: 106%
  inhibition at 100 µM: 81%

## Cc1cccc(Cl)c1NC(=O)Nc1ccncc1 [N-(2-chloro-6-methylphenyl)-N'-4-pyridinyl urea]
[7]; 0.5 μM
  Number Slices Recovered / Number Slices Tested (≥50% EPSP amplitude recovery after reoxygenation): 0/8
  changes from hypoxia: not different from control treatments
[7]; 2 μM
  Number Slices Recovered / Number Slices Tested (≥50% EPSP amplitude recovery after reoxygenation): 3/8
  mean EPSP amplitude after hypoxia: near significance
  percentage of slices that recovered EPSPs: 37%
[7]; 2 μM and 20 μM
  protection / improved recovery of EPSPs: significant protection of hippocampal slices from irreversible loss of synaptic potentials; also recorded: improves recovery of EPSPs
[7]; 20 μM
  Number Slices Recovered / Number Slices Tested (≥50% EPSP amplitude recovery after reoxygenation): 9 out of 10
  mean EPSP amplitude after hypoxia: significant with a high degree of confidence; also recorded: almost complete recovery of EPSPs
  protection from loss of EPSPs: almost complete protection from loss of EPSPs
  percentage of slices that recovered EPSPs: 90%
[7]; 20 μM, listed as Test drug
  Number Slices Recovered / Number Slices Tested (≥50% EPSP amplitude recovery after reoxygenation): 9/10
[7]; concentration-related, 0.5-20 μM
  mean EPSP amplitude after hypoxia, overall effect: significantly increased the mean EPSP amplitude after hypoxia; also recorded: increased EPSP amplitude following hypoxia in a concentration-dependent manner
[3]
  action on voltage-dependent sodium channels: modulates voltage-dependent sodium channels of nerve cell membranes; also recorded: modulator of neuronal voltage-gated sodium ion channels
[6]; concentrations used, before hypoxia
  effect on EPSP / presynaptic action potential amplitude: none of the concentrations tested reduced EPSP or presynaptic action potential amplitude
[4]
  inhibition at 30 µM: 101%
  inhibition at 100 µM: 80%

## O=C(Nc1cccnc1)Nc1ccc(Cl)c(Cl)c1 [N-(3,4-dichlorophenyl)-N'-3-pyridinyl urea]
[8]
  cytokinin activity: show such activity

## O=C(Nc1ccncc1)Nc1ccc(Cl)c(Cl)c1 [N-(3,4-dichlorophenyl)-N'-4-pyridinyl urea]
[8]
  cytokinin activity: show such activity

## COCCOC(=O)C1=C(C)NC(C)=C(C(=O)OC(C)C)C1c1cccc([N+](=O)[O-])c1 (centres unmarked) [Nimodipine, nimodipine]
[1]; 1 μM
  prevention of ischemic damage / loss of EPSPs: failed to prevent loss of EPSPs
[1]; 1.0 μM
  Number Slices Recovered / Number Slices Tested (≥50% EPSP amplitude recovery after reoxygenation): 1/9
[3]
  concentration at which it interacts with sodium channels: greater than 10 μM

## Cc1cccc(Cl)c1NC(=O)/C=C1\SCC(=O)N1C [ralitoline]
[2]
  neuroprotective capabilities: shown in vitro to have neuroprotective capabilities
